In PubChem BioAssay (NCI):
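Five concentrations, 48 hours, 96-well plates. The concentration for 50% growth inhibition is given as GI50. At the TGI there is no net growth.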

Legend:
Assay in all cases: DTP human tumour cell line panel, 48 h
SF-268 CNS = test system: SF-268 CNS
SK-MEL-5 melanoma = test system: SK-MEL-5 melanoma
NCI/ADR-RES ovarian = test system: NCI/ADR-RES ovarian
SF-539 CNS = test system: SF-539 CNS
PC-3 prostate = test system: PC-3 prostate
MALME-3M melanoma = test system: MALME-3M melanoma
LOX IMVI melanoma = test system: LOX IMVI melanoma
K-562 leukemia = test system: K-562 leukemia
RPMI-8226 leukemia = test system: RPMI-8226 leukemia
M14 melanoma = test system: M14 melanoma
CAKI-1 renal = test system: CAKI-1 renal
SK-OV-3 ovarian = test system: SK-OV-3 ovarian
SW-620 colon = test system: SW-620 colon
KM12 colon = test system: KM12 colon
UACC-257 melanoma = test system: UACC-257 melanoma
OVCAR-3 ovarian = test system: OVCAR-3 ovarian
NCI-H23 lung = test system: NCI-H23 lung
HCT-15 colon = test system: HCT-15 colon
OVCAR-5 ovarian = test system: OVCAR-5 ovarian
U251 CNS = test system: U251 CNS
MDA-MB-435 = test system: MDA-MB-435
786-0 renal = test system: 786-0 renal
A498 renal = test system: A498 renal
HCC-2998 colon = test system: HCC-2998 colon
HT29 colon = test system: HT29 colon
NCI-H460 lung = test system: NCI-H460 lung
SK-MEL-28 melanoma = test system: SK-MEL-28 melanoma
A549 NSCLC = test system: A549 NSCLC
EKVX NSCLC = test system: EKVX NSCLC
HOP-92 NSCLC = test system: HOP-92 NSCLC
MCF7 breast = test system: MCF7 breast
RXF 393 renal = test system: RXF 393 renal
UACC-62 melanoma = test system: UACC-62 melanoma
TK-10 renal = test system: TK-10 renal
SR leukemia = test system: SR leukemia
DU-145 prostate = test system: DU-145 prostate
SF-295 CNS = test system: SF-295 CNS
BT-549 breast = test system: BT-549 breast
MOLT-4 leukemia = test system: MOLT-4 leukemia
SN12C renal = test system: SN12C renal
MDA-MB-231 breast = test system: MDA-MB-231 breast
HOP-62 NSCLC = test system: HOP-62 NSCLC
CCRF-CEM leukemia = test system: CCRF-CEM leukemia
HL-60(TB) leukemia = test system: HL-60(TB) leukemia
T-47D breast = test system: T-47D breast
OVCAR-8 ovarian = test system: OVCAR-8 ovarian
SNB-75 CNS = test system: SNB-75 CNS
ACHN renal = test system: ACHN renal
HS 578T breast = test system: HS 578T breast
HCT-116 colon = test system: HCT-116 colon
UO-31 renal = test system: UO-31 renal

COC[C@]12CC[C@@H](C)[C@H](C)[C@H]1C1=CC[C@@H]3[C@@]4(C)CCCNC(C)(C)[C@@H]4CC[C@@]3(C)[C@]1(C)CC2
GI50 (SF-268 CNS): 1.92 µM | TGI (SF-268 CNS): 3.74 µM | GI50 (SK-MEL-5 melanoma): 1.71 µM | TGI (SK-MEL-5 melanoma): 3.11 µM | GI50 (NCI/ADR-RES ovarian): 1.78 µM | TGI (NCI/ADR-RES ovarian): 3.57 µM | GI50 (SF-539 CNS): 1.6 µM | TGI (SF-539 CNS): 3.03 µM | GI50 (PC-3 prostate): 1.49 µM | TGI (PC-3 prostate): 3.38 µM | GI50 (MALME-3M melanoma): 1.74 µM | TGI (MALME-3M melanoma): 3.61 µM | GI50 (LOX IMVI melanoma): 1.13 µM | TGI (LOX IMVI melanoma): 2.49 µM | GI50 (K-562 leukemia): 1.05 µM | TGI (K-562 leukemia): 2.81 µM | GI50 (RPMI-8226 leukemia): 2.19 µM | TGI (RPMI-8226 leukemia): 5.19 µM | GI50 (M14 melanoma): 1.77 µM | TGI (M14 melanoma): 3.57 µM | GI50 (CAKI-1 renal): 1.75 µM | TGI (CAKI-1 renal): 3.36 µM | GI50 (SK-OV-3 ovarian): 5.13 µM | TGI (SK-OV-3 ovarian): 19.8 µM | GI50 (SW-620 colon): 1.8 µM | TGI (SW-620 colon): 3.58 µM | GI50 (KM12 colon): 1.86 µM | TGI (KM12 colon): 3.43 µM | GI50 (UACC-257 melanoma): 2.05 µM | TGI (UACC-257 melanoma): 4.46 µM | GI50 (OVCAR-3 ovarian): 1.83 µM | TGI (OVCAR-3 ovarian): 3.29 µM | GI50 (NCI-H23 lung): 1.8 µM | TGI (NCI-H23 lung): 3.62 µM | GI50 (HCT-15 colon): 1.51 µM | TGI (HCT-15 colon): 3.16 µM | GI50 (OVCAR-5 ovarian): 1.81 µM | TGI (OVCAR-5 ovarian): 3.32 µM | GI50 (U251 CNS): 1.72 µM | TGI (U251 CNS): 3.43 µM | GI50 (MDA-MB-435): 1.65 µM | TGI (MDA-MB-435): 3.11 µM | GI50 (786-0 renal): 1.69 µM | TGI (786-0 renal): 3.21 µM | GI50 (A498 renal): 1.51 µM | TGI (A498 renal): 3.38 µM | GI50 (HCC-2998 colon): 1.76 µM | TGI (HCC-2998 colon): 3.38 µM | GI50 (HT29 colon): 1.58 µM | TGI (HT29 colon): 3.26 µM | GI50 (NCI-H460 lung): 1.72 µM | TGI (NCI-H460 lung): 3.35 µM | GI50 (SK-MEL-28 melanoma): 1.81 µM | TGI (SK-MEL-28 melanoma): 3.34 µM | GI50 (A549 NSCLC): 1.8 µM | TGI (A549 NSCLC): 3.77 µM | GI50 (EKVX NSCLC): 1.7 µM | TGI (EKVX NSCLC): 3.42 µM | GI50 (HOP-92 NSCLC): 1.54 µM | TGI (HOP-92 NSCLC): 4.36 µM | GI50 (MCF7 breast): 1.54 µM | TGI (MCF7 breast): 3.37 µM | GI50 (RXF 393 renal): 1.54 µM | TGI (RXF 393 renal): 3.02 µM | GI50 (UACC-62 melanoma): 1.71 µM | TGI (UACC-62 melanoma): 3.19 µM | GI50 (TK-10 renal): 1.87 µM | TGI (TK-10 renal): 3.52 µM | GI50 (SR leukemia): 1.48 µM | TGI (SR leukemia): 3.25 µM | GI50 (DU-145 prostate): 1.93 µM | TGI (DU-145 prostate): 3.41 µM | GI50 (SF-295 CNS): 1.88 µM | TGI (SF-295 CNS): 3.57 µM | GI50 (BT-549 breast): 1.8 µM | TGI (BT-549 breast): 3.6 µM | GI50 (MOLT-4 leukemia): 1.3 µM | TGI (MOLT-4 leukemia): 3.03 µM | GI50 (SN12C renal): 3.09 µM | TGI (SN12C renal): 11.8 µM | GI50 (MDA-MB-231 breast): 1.81 µM | TGI (MDA-MB-231 breast): 3.4 µM | GI50 (HOP-62 NSCLC): 1.73 µM | TGI (HOP-62 NSCLC): 3.55 µM | GI50 (CCRF-CEM leukemia): 1.67 µM | TGI (CCRF-CEM leukemia): 4.2 µM | GI50 (HL-60(TB) leukemia): 1.28 µM | TGI (HL-60(TB) leukemia): 3.05 µM | GI50 (T-47D breast): 1.87 µM | TGI (T-47D breast): 4.39 µM | GI50 (OVCAR-8 ovarian): 2.19 µM | TGI (OVCAR-8 ovarian): 4.94 µM | GI50 (SNB-75 CNS): 1.77 µM | TGI (SNB-75 CNS): 4.77 µM | GI50 (ACHN renal): 1.78 µM | TGI (ACHN renal): 3.22 µM | GI50 (HS 578T breast): 2.04 µM | TGI (HS 578T breast): 4.85 µM | GI50 (HCT-116 colon): 1.49 µM | TGI (HCT-116 colon): 2.92 µM | GI50 (UO-31 renal): 1.57 µM | TGI (UO-31 renal): 3.2 µM
